The NIST ThermoML archive (doi:10.1021/acs.jced.7b01006)

Experiment: xn = mol fraction of the nth substance listed
Details: 100 kPa, Liquid; for electrical conductivity: Alternating current cell with electrodes; for viscosity: Falling or rolling sphere viscometry; for mass density: Vibrating tube method

CCCCn1cc[n+](C)c1C.N#C[S-] [1-butyl-2,3-dimethylimidazolium thiocyanate] + CC#N
Details	electrical conductivity [S/m]	mass density [kg/m3]	viscosity [mPa·s]
288.15 K, x1 = 0.1001	4.72	888.99	16.94
288.15 K, x1 = 0.2004	4.01	951.31	38.93
288.15 K, x1 = 0.2999	3.35	995.07	67.12
288.15 K, x1 = 0.4003	1.19	1026.63	102.7
288.15 K, x1 = 0.5001	0.765	1038.63	145.4
288.15 K, x1 = 0.5999	0.599	1050.73	193.9
288.15 K, x1 = 0.6999	0.429	1062.95	249.1
288.15 K, x1 = 0.8002	0.358	1068.26	310.4
288.15 K, x1 = 0.9002	0.24	1075.99	377.8
288.15 K, x1 = 1	0.106	1084.2	452.7
293.15 K, x1 = 0.1001	5.01	885.19	11.74
293.15 K, x1 = 0.2004	4.34	948.02	27.08
293.15 K, x1 = 0.2999	3.71	991.9	46.77
293.15 K, x1 = 0.4003	1.45	1024	71.58
293.15 K, x1 = 0.5001	0.919	1036.16	100.9
293.15 K, x1 = 0.5999	0.728	1048.16	134.8
293.15 K, x1 = 0.6999	0.531	1060.42	172.9
293.15 K, x1 = 0.8002	0.458	1066.14	214.7
293.15 K, x1 = 0.9002	0.316	1073.56	260.4
293.15 K, x1 = 1	0.153	1081.11	311.3
298.15 K, x1 = 0.1001	5.31	881.36	8.229
298.15 K, x1 = 0.2004	4.69	944.6	18.85
298.15 K, x1 = 0.2999	4.05	988.57	32.07
298.15 K, x1 = 0.4003	1.71	1021.27	49.45
298.15 K, x1 = 0.5001	1.12	1033.49	69.9
298.15 K, x1 = 0.5999	0.891	1045.66	93.7
298.15 K, x1 = 0.6999	0.654	1057.9	119.9
298.15 K, x1 = 0.8002	0.57	1063.84	148.9
298.15 K, x1 = 0.9002	0.39	1071.37	181
298.15 K, x1 = 1	0.217	1078.2	218
303.15 K, x1 = 0.1001	5.61	877.5	5.854
303.15 K, x1 = 0.2004	5.03	941.34	12.95
303.15 K, x1 = 0.2999	4.42	985.32	22.58
303.15 K, x1 = 0.4003	2.01	1018.59	34.51
303.15 K, x1 = 0.5001	1.32	1030.79	49.24
303.15 K, x1 = 0.5999	1.06	1043.17	66.62
303.15 K, x1 = 0.6999	0.795	1055.17	85.89
303.15 K, x1 = 0.8002	0.697	1061.75	106.9
303.15 K, x1 = 0.9002	0.497	1068.94	130.3
303.15 K, x1 = 1	0.293	1075.18	157.9
